Source: patent publication US20160176961A1, “THROMBOPOIETIN RECEPTOR LIGANDS FOR NEUROPROTECTION” (MCW Research Foundation, Inc., priority 2011, published 2016)
“Also recorded” adds a separate entry of the source.

Experiments:
[1] = compared with Tpo itself; literature (Blood 85:981; J interferon Cyto Res); cited from earlier work
Male Sprague Dawley rats = test: left middle cerebral artery occlusion followed by reperfusion (focal stroke); type: in vivo, rat
Description: Male Sprague Dawley rats, 10 weeks of age (n=6/group) undergo 2-3 hours of left middle cerebral artery occlusion followed by 20-48 hours of reperfusion. Vehicle or thrombopoietin (0.03 to 1.00 μg/kg) is administered intravenously immediately after reperfusion. Brain infarct and swelling, neurologic deficits, matrix metalloproteinase-9 (MMP-9), tissue inhibitor of metalloproteinase-1 (TIMP-1), thrombopoietin and c-Mpl (thrombopoietin receptor) mRNA and protein, MMP-9 enzyme activity and protein expression, and the integrity of the blood-brain barrier are measured. Reperfusion of the left middle cerebral artery occlusion is expected to produce a large infarct and swelling after stroke.
Thrombopoietin is administered intravenously over the range 0.001-10 μg/kg. […] Stroke-induced increases in cortical MMP-9 mRNA, enzyme activity and protein expression, TIMP-1 mRNA, and Evans blue extravasation would be reduced by administration of thrombopoietin.

heart = settings: earlier work of the inventor, U.S. Pat. No. 7,879,318; cited from earlier work
[2] = rat MCA occlusion/reperfusion, i.v. thrombopoietin

Compound: CC1=NN(c2ccc(C)c(C)c2)C(=O)/C1=N\Nc1cccc(-c2cccc(C(=O)O)c2)c1O [eltrombopag]
- crossing of the blood brain barrier relative to Tpo [1]: cross the blood brain barrier more effectively than does Tpo itself

Compound: Thrombopoietin
- most effective thrombopoietin dose (Male Sprague Dawley rats; i.v., tested over the range 0.001-10 μg/kg, immediately or 2 hours after reperfusion): 0.05 to 1.0 µg/kg
- stroke-induced increase in Evans blue extravasation (blood-brain barrier integrity) (Male Sprague Dawley rats; [2]): reduced
- stroke-induced increase in TIMP-1 mRNA (Male Sprague Dawley rats; [2]): reduced
- stroke-induced increases in cortical MMP-9 mRNA, enzyme activity and protein expression (Male Sprague Dawley rats; [2]): reduced
- neurologic deficits after stroke (Male Sprague Dawley rats; rat MCA occlusion/reperfusion, i.v. immediately or 2 hours after reperfusion, vs untreated controls): ameliorate
- infarct size and swelling (Male Sprague Dawley rats; rat, 2-3 h MCA occlusion, 20-48 h reperfusion, thrombopoietin i.v. immediately or 2 hours after reperfusion, vs untreated controls): significantly reduces these indices of injury to the brain in a dose-dependent manner; also recorded: significantly reduce
- protection of the heart against deleterious effects of ischemia/reperfusion (heart): protects the heart against various deleterious effects of ischemia/reperfusion

Compound: romiplostim
- crossing of the blood brain barrier relative to Tpo [1]: cross the blood brain barrier more effectively than does Tpo itself
